In patent publication EP4699608A1, “COMPOSITION FOR PREVENTING OR TREATING CANCER PAIN” (Maruishi Pharmaceutical Co., Ltd., priority 2023, dated 2024):

Columns and labels:
[1] = tested on: cancer pain model rats; assay: Pain threshold in cancer pain model rats (MRMT-1 bone metastasis model, Dynamic Plantar Aesthesiometer); format: in vivo; settings: for cancer pain threshold: single dose, day 11 after MRMT-1 transplantation, plantar surface of right hind paw, compared to control group (Dunnett's test, 1%); for pain threshold-time area under the curve (AUC): up to 24 hours after administration, compared to morphine 3 mg/kg subcutaneous
Method: Five-week-old female Crl:CD(SD) SPF rats (Charles River Japan) were injected with MRMT-1 cells (rat breast cancer cells) at 3 × 10^4 cells/20 µL/ body into the medullary cavity at the proximal end of the diaphysis of the right tibia to create a bone metastasis model (day 0). On day 10 after the transplantation of the cancer cells (day 10), the rats were divided into 4 groups of 8 rats each: a control group (with administration of distilled water (trade name: Otsuka Distilled Water) manufactured by Otsuka Pharmaceutical Factory, Inc.), a 10 mg/kg compound A administration group, a 30 mg/kg compound A administration group, and a morphine administration group, as shown in Table 1 below. On day 11 after the transplantation of the cancer cells (day 11), each drug was orally or subcutaneously administered to the rats at a dose of 2 mL/kg. The pain threshold (g) of the plantar surface of the right hind paw was measured using a Dynamic Plantar Aesthesiometer (37450, Ugo Basile) under blinded conditions 1, 3, 6, and 24 hours after the administration. The average value of the pain threshold-time area under the curve (AUC) (g·hr) for 24 hours post-administration was determined for each group.

[2] = tested on: rats; assay: Coordinated motor ability (rotarod); format: in vivo; settings: 10 rotations/min, cutoff 180 seconds, compared to control group
Method: Five- to six-week-old male SD-SPF rats (Japan SLC, Inc.) were used in this experiment. The experimental schedule included training using a rotarod (SN445, Shinano Seisakusyo) for 3 days (6 times a day), starting from 3 days before the day of administration. On the day of administration, pre-values (time to stay on the rotarod before the administration of compound A or distilled water) were measured twice, and the rats that spent 180 seconds or more on the rotarod in either of the two measurements were selected. The rats were divided into 3 groups of 6 rats each: a control group (with administration of distilled water (trade name: Otsuka Distilled Water) manufactured by Otsuka Pharmaceutical Factory, Inc.), a 10 mg/kg compound A administration group, and a 30 mg/kg compound A administration group, as shown in Table 3 below. Compound A or distilled water was orally administered to the rats at a dose of 10 mL/kg, and the time to stay on the rotarod was measured 1, 3, 6, and 24 hours after the administration under the test conditions of 10 rotations/min with a cutoff of 180 seconds.

[3] = tested on: mice; assay: Spontaneous locomotor activity (Supermex); format: in vivo; settings: measured for 30 minutes, 1 or 3 hours after administration, compared to control group
Method: Five- to six-week-old male ICR-SPF mice (Japan SLC, Inc.) were divided into 5 groups of 8 mice each: a control group (with administration of distilled water (trade name: Otsuka Distilled Water) manufactured by Otsuka Pharmaceutical Factory, Inc.), two 10 mg/kg compound A administration groups, and two 30 mg/kg compound A administration groups, as shown in Table 2 below. Compound A or distilled water at a dose of 10 mL/kg was orally administered to the mice. One or three hours after the administration of compound A or distilled water, the mice were transferred to a measurement cage, and spontaneous locomotor activity was measured for 30 minutes using Supermex (registered trademark) (Muromachi Kikai Co., Ltd.).

[4] = tested on: rats; settings: at a dose lower than that required to exert an analgesic effect; cited from earlier work

Row | Compound | cancer pain threshold ([1]; 10 mg/kg oral) | pain threshold-time area under the curve (AUC) ([1]; 10 mg/kg oral) | cancer pain threshold ([1]; 30 mg/kg oral) | pain threshold-time area under the curve (AUC) ([1]; 30 mg/kg oral) | coordinated motor ability (time to stay on the rotarod) ([2]; 10 mg/kg oral, 1, 3, 6 and 24 hours after administration) | coordinated motor ability (time to stay on the rotarod) ([2]; 30 mg/kg oral, 1, 3, 6 and 24 hours after administration) | spontaneous locomotor activity (amount of activity) ([3]; 10 mg/kg oral) | spontaneous locomotor activity (amount of activity) ([3]; 30 mg/kg oral) | influences on the central nervous system (coordinated motor ability) [4]
1 | NC1CCN(c2cccc(Cl)n2)CC1 [compound A, 1-(6-chloropyridin-2-yl)piperidin-4-amine] | significantly increased | no statistically significant difference | significantly increased | no statistically significant difference | no significant changes in the coordinated motor ability | no significant changes in the coordinated motor ability | no significant changes in the amount of activity | no significant changes in the amount of activity | –
2 | CC(C)C[C@H](CN)CC(=O)O [pregabalin, Pregabalin] | – | – | – | – | – | – | – | – | inhibits coordinated motor ability
